Experimental data published in PMC4418176 (Bioorganic & medicinal chemistry letters, 2009).

What was measured:
NTR1 = NTR1 (Homo sapiens, UniProt P30989); assay: NTR1 agonist-mediated calcium mobilization assay; format: cell-based; conditions: for NTR1 specificity of the observed calcium release (block by NTR1 antagonist 1a): cells pre-incubated with 1 or 10 mM 1a for 15 min at 37 °C, test compound at its EC50, data not shown
NTR1 receptor = conditions: calcium release (FLIPR) assay; cited from earlier work

NTR1, sequence (P30989 whole entry, species assumed): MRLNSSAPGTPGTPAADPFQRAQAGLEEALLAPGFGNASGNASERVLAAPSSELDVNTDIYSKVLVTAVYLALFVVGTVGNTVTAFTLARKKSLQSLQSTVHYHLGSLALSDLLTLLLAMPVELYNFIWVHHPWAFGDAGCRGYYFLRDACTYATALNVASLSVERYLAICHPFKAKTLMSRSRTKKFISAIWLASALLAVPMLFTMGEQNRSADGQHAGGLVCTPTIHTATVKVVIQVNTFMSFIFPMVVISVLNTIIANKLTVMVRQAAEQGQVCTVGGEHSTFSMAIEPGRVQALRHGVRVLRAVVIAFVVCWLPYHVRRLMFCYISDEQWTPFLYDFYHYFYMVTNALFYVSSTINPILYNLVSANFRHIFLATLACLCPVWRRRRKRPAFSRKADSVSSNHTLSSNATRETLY

SMILES | NTR1 specificity of the observed calcium release (block by NTR1 antagonist 1a) (NTR1) | NTR1 receptor partial agonist activity (NTR1 receptor) | further results
COc1cccc(OC)c1-c1cc(C(=O)N[C@H](C(=O)O)C2CCCCC2)nn1-c1ccnc2cc(Cl)ccc12 [Compound 1b, reference compound] | – | – | Screen (10 μM), percent stimulation relative to NT (NTR1; 10 μM, in triplicate, CHO-K1 cells stably expressing NTR1, NA = not active): did not stimulate calcium release
COc1cccc(OC)c1-c1cc(C(=O)N[C@@H](CC(C)C)C(=O)O)nn1-c1ccnc2cc(Cl)ccc12 [Compound 3a] | demonstrated by blocking with the NTR1 antagonist (1a) | – | Emax (NTR1; ± SEM, relative to neurotensin): 51 %NT
COc1cccc(OC)c1-c1cc(C(=O)N[C@H](CC(C)C)C(=O)O)nn1-c1ccnc2cc(Cl)ccc12 [Compound 3b] | demonstrated by blocking with the NTR1 antagonist (1a) | – | –
COc1cccc(OC)c1-c1cc(C(=O)N[C@@H](CC(C)C)C(=O)O)nn1-c1cccc2ccccc12 [Compound 5] | – | – | agonist activity when screened (NTR1): no agonist activity
CC(C)CC(NC(=O)OCC1c2ccccc2-c2ccccc21)C(=O)O (stereo not shown) [Compound 6] | – | partial agonist activity | –
CC(C)C[C@H](NC(=O)Cn1ccc2cc(NS(=O)(=O)c3cccc4cccnc34)ccc21)C(=O)O [Compound 7] | – | partial agonist activity | –
